In ChEMBL document CHEMBL1135067, “Synthesis and antithrombotic activity of carbolinecarboxyl RGD sequence” (2002):
Where a SMILES comes first, the peptide text is derived from it. [ ]: non-standard residue; d: D form. Tpi = O=C(O)[C@@H]1Cc2c([nH]c3ccccc23)CN1

What was measured:
Format in all cases: functional
Oryctolagus cuniculus [1] = organism: Oryctolagus cuniculus; experiment: Tested in vitro for maximal rate of platelet aggregation induced by adenosine diphosphate (10 e5 mol/L) at a dose of 10 e5 mol/L in rabbit blood
Oryctolagus cuniculus [2] = organism: Oryctolagus cuniculus; experiment: Tested in vitro for maximal rate of platelet aggregation induced by adenosine diphosphate (10 e5 mol/L) at a dose of 10 e6 mol/L in rabbit blood
Oryctolagus cuniculus [3] = organism: Oryctolagus cuniculus; experiment: Tested in vitro for maximal rate of platelet aggregation induced by adenosine diphosphate (10 e5 mol/L) at a dose of 10 e7 mol/L in rabbit blood
Oryctolagus cuniculus [4] = organism: Oryctolagus cuniculus; experiment: Tested in vitro for the maximal rate of platelet aggregation induced by platelet activating factor (10 e-7 mol/L) at a dose of 10 e5 mol/L in rabbit blood
Oryctolagus cuniculus [5] = organism: Oryctolagus cuniculus; experiment: Tested in vitro for the maximal rate of platelet aggregation induced by platelet activating factor (10 e-7 mol/L) at a dose of 10 e6 mol/L in rabbit blood
Oryctolagus cuniculus [6] = organism: Oryctolagus cuniculus; experiment: Tested in vitro for the maximal rate of platelet aggregation induced by platelet activating factor (10 e-7 mol/L) at a dose of 10 e7 mol/L in rabbit blood
Rattus norvegicus [7] = experiment: Tested for the effect on the dry thrombus weight at a dose of 5 umol/kg in male wistar anesthetized rat
Rattus norvegicus [8] = experiment: Tested for the effect on the wet thrombus weight at a dose of 5 umol/kg in male wistar anesthetized rat
SACC-LM = experiment: Tested for the effect of compound on the adhesion of high pulmonary metastatic SACC cell line SACC-LM and platelets at 5 mg/mL
Rattus norvegicus [9] = experiment: Tested for the effect on the wet thrombus weight at a dose of 5 uM/kg in male wistar anesthetized rat
Rattus norvegicus [10] = experiment: Tested for the effect on the dry thrombus weight at a dose of 5 uM/kg in male wistar anesthetized rat

| SMILES | Am (Oryctolagus cuniculus [1]) [%] | Am (Oryctolagus cuniculus [2]) [%] | Am (Oryctolagus cuniculus [3]) [%] | Am (Oryctolagus cuniculus [4]) [%] | Am (Oryctolagus cuniculus [5]) [%] | Am (Oryctolagus cuniculus [6]) [%] | Thrombus weight (Rattus norvegicus [7]) [mg] | Thrombus weight (Rattus norvegicus [8]) [mg] | Activity (SACC-LM) [%] | Thrombus weight (Rattus norvegicus [9]) [mg] | Thrombus weight (Rattus norvegicus [10]) [mg] |
| --- | --- | --- | --- | --- | --- | --- | --- | --- | --- | --- | --- |
| NC(N)=NCCC[C@H](N)C(=O)NCC(=O)N[C@@H](CC(=O)O)C(=O)N[C@@H](Cc1ccccc1)C(=O)O (H-RGDF-OH) | 7.36 | 22.11 | 35.7 | 7.81 | 23.8 | 39.18 | 4.14 | 26.61 | 29.7 |  |  |
| CC(C)[C@H](NC(=O)[C@H](CC(=O)O)NC(=O)CNC(=O)[C@@H](N)CCCN=C(N)N)C(=O)O (H-RGDV-OH) | 9.8 | 29.4 | 51.16 | 19.56 | 34.17 | 54.36 | 6.03 | 34.62 | 32.1 |  |  |
| N=C(N)NCCC[C@H](NC(=O)[C@@H]1Cc2c([nH]c3ccccc23)CN1)C(=O)NCC(=O)N[C@@H](CC(=O)O)C(=O)N[C@@H](Cc1ccccc1)C(=O)O (H-[Tpi]RGDF-OH) | 9.01 | 21.05 | 36.05 | 20.05 | 25.54 | 36.05 | 2.76 |  | 28.1 | 22.3 |  |
| N=C(N)NCCC[C@H](NC(=O)[C@@H]1Cc2c([nH]c3ccccc23)CN1)C(=O)NCC(=O)N[C@@H](CC(=O)O)C(=O)N[C@@H](CO)C(=O)O (H-[Tpi]RGDS-OH) | 16.11 | 43.05 | 50.16 | 28.07 | 34.15 | 56.1 | 4.98 | 28.09 | 36.1 |  |  |
| CC(C)[C@H](NC(=O)[C@H](CC(=O)O)NC(=O)CNC(=O)[C@H](CCCN=C(N)N)NC(=O)[C@@H]1Cc2c([nH]c3ccccc23)CN1)C(=O)O (H-[Tpi]RGDV-OH) | 10.75 | 26.01 | 50.2 | 24.11 | 35.05 | 54.1 | 4.87 | 29.49 | 30.2 |  |  |
| N=C(N)NCCC[C@H](N)C(=O)NCC(=O)N[C@@H](CC(=O)O)C(=O)NC(CO)C(=O)O (single isomer, unassigned) | 14.22 | 40.54 | 52.85 | 21.16 | 36.15 | 57.2 | 7.68 | 43.61 | 35.8 |  |  |
| O=C(O)[C@@H]1Cc2c([nH]c3ccccc23)CN1 [CYCLOMETHYLTRYPTOPHAN] | 24.6 | 45.16 | 53.66 | 35.66 | 50.18 | 55.15 |  | 42.99 | 45.6 |  | 7.17 |
